{
  "source": "patent US12077503B2",
  "about": "“Substituted cyclic amides and their use as herbicides” (FMC CORPORATION, priority 2015, dated 2024)",
  "format_in_all_cases": "in vivo",
  "key": {"Kochia (Kochia scoparia) [1]": {"tested_on": "Kochia (Kochia scoparia)", "assay": "Test A preemergence", "conditions": "Bassia scoparia, pre-emergence, 240 h", "procedure,_shortened": "(§1)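 Ratings of 0 (no effect) to 100 (complete control) come from visual comparison with untreated controls roughly 10 d after treatment. Test chemicals, formulated in a non-phytotoxic solvent mixture with surfactant, were applied either as a preemergence directed soil spray on seeded soil or postemergence to one- to two-leaf plants 2 to 10 cm tall.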"}, "[2]": {"tested_on": "barnyardgrass (Echinochloa crus-galli)", "assay": "Test A preemergence", "conditions": "Echinochloa crus-galli, pre-emergence, 240 h", "procedure,_shortened": "as §1"}, "[3]": {"tested_on": "giant foxtail (Setaria faberii)", "assay": "Test A preemergence", "conditions": "Setaria faberi, pre-emergence, 240 h", "procedure,_shortened": "as §1"}, "[4]": {"tested_on": "pigweed (Amaranthus retroflexus)", "assay": "Test A preemergence", "conditions": "Amaranthus retroflexus, pre-emergence, 240 h"}, "[5]": {"tested_on": "ragweed (common ragweed, Ambrosia elatior)", "assay": "Test A preemergence", "conditions": "Ambrosia artemisiifolia, pre-emergence, 240 h", "procedure,_shortened": "as §1"}, "[6]": {"tested_on": "ryegrass, Italian (Italian ryegrass, Lolium multiflorum)", "assay": "Test A preemergence", "conditions": "Lolium multiflorum, pre-emergence, 240 h", "procedure,_shortened": "as §1"}, "[7]": {"tested_on": "Galium (catchweed bedstraw, Galium aparine)", "assay": "Test A postemergence", "conditions": "Galium, post-emergence, 240 h, 125 g ai/ha, Postemergence; visual injury after approximately 10 d; 0 to 100 scale where 0 is no effect and 100 is complete control; read-out: Plant response rating, Galium", "procedure,_shortened": "as §1"}, "Kochia (Kochia scoparia) [8]": {"tested_on": "Kochia (Kochia scoparia)", "assay": "Test A postemergence", "conditions": "Bassia scoparia, post-emergence, 240 h, 125 g ai/ha, Postemergence; visual injury after approximately 10 d; 0 to 100 scale where 0 is no effect and 100 is complete control; read-out: Plant response rating, Kochia", "procedure,_shortened": "as §1"}, "[9]": {"tested_on": "blackgrass (Alopecurus myosuroides)", "assay": "Test A postemergence", "conditions": "Alopecurus myosuroides, post-emergence, 240 h, 125 g ai/ha, Postemergence; visual injury after approximately 10 d; 0 to 100 scale where 0 is no effect and 100 is complete control; read-out: Plant response rating, Blackgrass", "procedure,_shortened": "as §1"}, "corn (Zea mays)": {"tested_on": "corn (Zea mays)", "assay": "Test A postemergence", "conditions": "Zea mays, post-emergence, 240 h, 125 g ai/ha, Postemergence; visual injury after approximately 10 d; 0 to 100 scale where 0 is no effect and 100 is complete control", "procedure,_shortened": "as §1"}, "[10]": {"tested_on": "giant foxtail (Setaria faberii)", "assay": "Test A postemergence", "conditions": "Setaria faberi, post-emergence, 240 h, 125 g ai/ha, Postemergence; visual injury after approximately 10 d; 0 to 100 scale where 0 is no effect and 100 is complete control; read-out: Plant response rating, Foxtail, Giant", "procedure,_shortened": "as §1"}, "[11]": {"tested_on": "pigweed (Amaranthus retroflexus)", "assay": "Test A postemergence", "conditions": "Amaranthus retroflexus, post-emergence, 240 h, 125 g ai/ha, Postemergence; visual injury after approximately 10 d; 0 to 100 scale where 0 is no effect and 100 is complete control; read-out: Plant response rating, Pigweed", "procedure,_shortened": "as §1"}, "[12]": {"tested_on": "ragweed (common ragweed, Ambrosia elatior)", "assay": "Test A postemergence", "conditions": "Ambrosia artemisiifolia, post-emergence, 240 h, 125 g ai/ha, Postemergence; visual injury after approximately 10 d; 0 to 100 scale where 0 is no effect and 100 is complete control; read-out: Plant response rating, Ragweed", "procedure,_shortened": "as §1"}, "[13]": {"tested_on": "ryegrass, Italian (Italian ryegrass, Lolium multiflorum)", "assay": "Test A postemergence", "conditions": "Lolium multiflorum, post-emergence, 240 h, 125 g ai/ha, Postemergence; visual injury after approximately 10 d; 0 to 100 scale where 0 is no effect and 100 is complete control; read-out: Plant response rating, Ryegrass, Italian", "procedure,_shortened": "as §1"}, "[14]": {"tested_on": "wheat (Triticum aestivum)", "assay": "Test A postemergence", "conditions": "Triticum aestivum, post-emergence, 240 h, 125 g ai/ha, Postemergence; visual injury after approximately 10 d; 0 to 100 scale where 0 is no effect and 100 is complete control; read-out: Plant response rating, Wheat", "procedure,_shortened": "as §1"}, "[15]": {"tested_on": "barnyardgrass (Echinochloa crus-galli)", "assay": "Test B flooded paddy test", "conditions": "Echinochloa crus-galli, Flood, 250 g ai/ha; scale of 0 to 100 where 0 is no effect and 100 is complete control; read-out: Barnyardgrass plant response rating", "procedure,_shortened": "(§2)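 Response scored visually against untreated controls, 0 = no effect and 100 = complete control, 13–15 d after treatment in the greenhouse. Compounds added to paddy water held 3 cm above soil surface. Treatment given at 2-leaf stage.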"}, "[16]": {"tested_on": "ducksalad (Heteranthera limosa)", "assay": "Test B flooded paddy test", "conditions": "Heteranthera limosa, Flood, 250 g ai/ha; scale of 0 to 100 where 0 is no effect and 100 is complete control; read-out: Ducksalad plant response rating", "procedure,_shortened": "as §2"}, "rice (Oryra sativa)": {"tested_on": "rice (Oryra sativa)", "assay": "Test B flooded paddy test", "conditions": "Oryza sativa, Flood, 250 g ai/ha; scale of 0 to 100 where 0 is no effect and 100 is complete control; read-out: Rice plant response rating", "procedure,_shortened": "as §2"}, "[17]": {"tested_on": "sedge, umbrella (small-flower umbrella sedge, Cyperus difformis)", "assay": "Test B flooded paddy test", "conditions": "Cyperus difformis, Flood, 250 g ai/ha; scale of 0 to 100 where 0 is no effect and 100 is complete control; read-out: Sedge, Umbrella plant response rating", "procedure,_shortened": "as §2"}},
  "data": [
    {"molecule": "CN1C[C@H](c2cc(F)cc(Cl)c2)[C@@H](C(=O)Nc2cccc(F)c2F)C1=O", "note": "[Compound 974]", "values": [
      {"measurement": "pest or weed control at 125 g/ha", "setting": "Kochia (Kochia scoparia) [1]; 125 g ai/ha, Preemergence, visual injury rating after approximately 10 d, read-out: Kochia plant response rating (0 to 100 scale, 0 is no effect, 100 is complete control)", "value": 90, "unit": "%"},
      {"measurement": "pest or weed control at 500 g/ha", "setting": "Kochia (Kochia scoparia) [1]; 500 g ai/ha, preemergence, visual injury rating about 10 d after treatment, 0 to 100 scale (0 no effect, 100 complete control), read-out: Kochia plant response rating", "value": 100, "unit": "%"},
      {"measurement": "pest or weed control at 125 g/ha", "setting": "[2]; 125 g ai/ha, Preemergence, visual injury rating after approximately 10 d, read-out: Barnyardgrass plant response rating (0 to 100 scale, 0 is no effect, 100 is complete control)", "value": 90, "unit": "%"},
      {"measurement": "pest or weed control at 500 g/ha", "setting": "[2]; 500 g ai/ha, preemergence, visual injury rating about 10 d after treatment, 0 to 100 scale (0 no effect, 100 complete control), read-out: Barnyardgrass plant response rating", "value": 100, "unit": "%"},
      {"measurement": "pest or weed control at 125 g/ha", "setting": "[3]; 125 g ai/ha, Preemergence, visual injury rating after approximately 10 d, read-out: Foxtail, Giant plant response rating (0 to 100 scale, 0 is no effect, 100 is complete control)", "value": 90, "unit": "%"},
      {"measurement": "pest or weed control at 500 g/ha", "setting": "[3]; 500 g ai/ha, preemergence, visual injury rating about 10 d after treatment, 0 to 100 scale (0 no effect, 100 complete control), read-out: Foxtail, Giant plant response rating", "value": 90, "unit": "%"},
      {"measurement": "pest or weed control at 125 g/ha", "setting": "[4]; 125 g ai/ha, Preemergence, visual injury rating after approximately 10 d, read-out: Pigweed plant response rating (0 to 100 scale, 0 is no effect, 100 is complete control)", "value": 20, "unit": "%"},
      {"measurement": "pest or weed control at 500 g/ha", "setting": "[4]; 500 g ai/ha, preemergence, visual injury rating about 10 d after treatment, 0 to 100 scale (0 no effect, 100 complete control), read-out: Pigweed plant response rating", "value": 60, "unit": "%"},
      {"measurement": "pest or weed control at 125 g/ha", "setting": "[5]; 125 g ai/ha, Preemergence, visual injury rating after approximately 10 d, read-out: Ragweed plant response rating (0 to 100 scale, 0 is no effect, 100 is complete control)", "value": 90, "unit": "%"},
      {"measurement": "pest or weed control at 500 g/ha", "setting": "[5]; 500 g ai/ha, preemergence, visual injury rating about 10 d after treatment, 0 to 100 scale (0 no effect, 100 complete control), read-out: Ragweed plant response rating", "value": 90, "unit": "%"},
      {"measurement": "pest or weed control at 125 g/ha", "setting": "[6]; 125 g ai/ha, Preemergence, visual injury rating after approximately 10 d, read-out: Ryegrass, Italian plant response rating (0 to 100 scale, 0 is no effect, 100 is complete control)", "value": 70, "unit": "%"},
      {"measurement": "pest or weed control at 500 g/ha", "setting": "[6]; 500 g ai/ha, preemergence, visual injury rating about 10 d after treatment, 0 to 100 scale (0 no effect, 100 complete control), read-out: Ryegrass, Italian plant response rating", "value": 90, "unit": "%"},
      {"measurement": "pest or weed control at 125 g/ha", "setting": "[7]", "value": 50, "unit": "%"},
      {"measurement": "pest or weed control at 125 g/ha", "setting": "Kochia (Kochia scoparia) [8]", "value": 70, "unit": "%"},
      {"measurement": "pest or weed control at 125 g/ha", "setting": "[9]", "value": 70, "unit": "%"},
      {"measurement": "Corn plant response rating (crop injury, 0 = no effect, 100 = complete kill) at 125 g/ha", "setting": "corn (Zea mays)", "value": 70, "unit": "%"},
      {"measurement": "pest or weed control at 125 g/ha", "setting": "[10]", "value": 90, "unit": "%"},
      {"measurement": "pest or weed control at 125 g/ha", "setting": "[11]", "value": 40, "unit": "%"},
      {"measurement": "pest or weed control at 125 g/ha", "setting": "[12]", "value": 20, "unit": "%"},
      {"measurement": "pest or weed control at 125 g/ha", "setting": "[13]", "value": 70, "unit": "%"},
      {"measurement": "plant injury at 125 g/ha", "setting": "[14]", "value": 70, "unit": "%"},
      {"measurement": "pest or weed control at 250 g/ha", "setting": "[15]", "value": 60, "unit": "%"},
      {"measurement": "pest or weed control at 250 g/ha", "setting": "[16]", "value": 100, "unit": "%"},
      {"measurement": "pest or weed control at 250 g/ha", "setting": "rice (Oryra sativa)", "value": 15, "unit": "%"},
      {"measurement": "pest or weed control at 250 g/ha", "setting": "[17]", "value": 0, "unit": "%"}
    ]}
  ]
}
